Assay results published in ChEMBL document CHEMBL2057163, “Pyridofuran substituted pyrimidine derivatives as HCV replication (replicase) inhibitors” (Bioorg Med Chem Lett, 2012).

How the values were obtained:
[1] = tested on: Hepatitis C virus; assay: Antiviral activity against Hepatitis C virus 1b con1 infected in human hepatoma cells assessed as decrease in replicon RNA level after 3 days by RT-PCR analysis; format: functional, organism-based, Hepacivirus hominis; settings: Con1, 72 h
[2] = Cytotoxicity against human hepatoma cells after 3 days by MTS assay; format: cell-based
[3] = Cytotoxicity against human hepatoma cells assessed as decrease in GAPDH RNA level after 3 days by RT-PCR analysis; format: cell-based
[4] = Selectivity ratio of CC50 for human hepatoma cells by MTS assay to EC50 for Hepatitis C virus 1b con1; format: ADME; settings: read-out: Ratio CC50/EC50
[5] = AUC (0 to 6 hrs) in rat at 10 mg/kg, po; format: ADME, organism-based; parameters: time < 6 hr, dose 10 mg/kg, route oral; settings: plasma
[6] = tested on: Liver; assay: Drug uptake in rat liver assessed per gram of tissue at 10 mg/kg, po measured at 6 hrs; format: ADME, organism-based; parameters: dose 10 mg/kg, route oral; settings: in vivo
[7] = Cytotoxicity against human hepatoma cells assessed as inhibition of [14C]thymidine incorporation after 3 days by scintillation proximity assay; format: cell-based
[8] = Oral bioavailability in rat at 10 mg/kg; format: ADME, organism-based; settings: in vivo
[9] = Half life in rat at 10 mg/kg, po; format: ADME, organism-based; parameters: dose 10 mg/kg, route oral; settings: in vivo
[10] = Clearance in rat at 10 mg/kg, po; format: ADME, organism-based; parameters: dose 10 mg/kg, route oral; settings: in vivo
[11] = AUC in monkey at 3 mg/kg, po; format: ADME, organism-based, Macaca mulatta; parameters: dose 3 mg/kg, route oral; settings: rhesus monkey, plasma
[12] = Oral bioavailability in monkey at 3 mg/kg; format: ADME, organism-based, Macaca mulatta; settings: rhesus monkey, in vivo
[13] = Half life in monkey at 3 mg/kg, po; format: ADME, organism-based, Macaca mulatta; parameters: dose 3 mg/kg, route oral; settings: rhesus monkey, in vivo
[14] = Clearance in monkey at 3 mg/kg, po; format: ADME, organism-based, Macaca mulatta; parameters: dose 3 mg/kg, route oral; settings: rhesus monkey, in vivo
[15] = AUC in dog at 3 mg/kg, po; format: ADME, organism-based, Canis lupus familiaris; parameters: dose 3 mg/kg, route oral; settings: plasma
[16] = Oral bioavailability in dog at 3 mg/kg; format: ADME, organism-based, Canis lupus familiaris; settings: in vivo
[17] = Half life in dog at 3 mg/kg, po; format: ADME, organism-based, Canis lupus familiaris; parameters: dose 3 mg/kg, route oral; settings: in vivo
[18] = Clearance in dog at 3 mg/kg, po; format: ADME, organism-based, Canis lupus familiaris; parameters: dose 3 mg/kg, route oral; settings: in vivo

| SMILES | EC50 [1] [µM] | CC50 at 72 h [2] [µM] | CC50 at 72 h [3] [µM] | selectivity ratio [4] | AUC(0-t) at 6 h [5] [µM·h] | liver concentration [6] [ng/g] | CC50 at 72 h [7] [µM] | bioavailability [8] [%] | half-life [9] [h] | CL/F [10] [mL/min/kg] | AUC [11] [µM·h] | bioavailability [12] [%] | half-life [13] [h] | CL/F [14] [mL/min/kg] | AUC [15] [µM·h] | bioavailability [16] [%] | half-life [17] [h] | CL/F [18] [mL/min/kg] |
| --- | --- | --- | --- | --- | --- | --- | --- | --- | --- | --- | --- | --- | --- | --- | --- | --- | --- | --- |
| CNc1nc(Cl)c(-c2cc3cc(OC)nc(C)c3o2)c(N[C@@H]2C[C@H](CO)[C@@H](O)[C@H]2O)n1 | 0.02 | 25 | > 25 | > 1000 | – | – | – | – | – | – | – | – | – | – | – | – | – | – |
| CCOc1cc2cc(-c3c(C)nc(NCC4CC4)nc3N[C@@H]3C[C@H](CO)[C@@H](O)[C@H]3O)oc2c(C)n1.Cl | – | – | – | – | 45.5 | 10200 | 5 | 97 | 3.3 | 8 | 10.2 | 100 | 2.8 | 16 | 1.6 | 15 | 2.1 | 9.5 |
| CCc1cc2cc(-c3c(C)nc(NCC(F)(F)F)nc3N[C@@H]3C[C@H](CO)[C@@H](O)[C@H]3O)oc2cn1.Cl | – | – | – | – | 5.3 | 1730 | 4 | 39 | 4.2 | 27 | 5.2 | 69 | 7 | 15 | 6.4 | 83 | 2.1 | 13 |
